From US20120122948A1, “3-ALKYL-5-FLUOROINDOLE DERIVATIVES AS MYELOPEROXIDASE INHIBITORS” (UNIVERSITE LIBRE DE BEUXELLES, priority 2009, published 2012) come the findings set out here.

Experiment [1] addresses T1, MPO (Homo sapiens, UniProt P05164).
T1 construct: made in house
T1 sequence (P05164 49-745): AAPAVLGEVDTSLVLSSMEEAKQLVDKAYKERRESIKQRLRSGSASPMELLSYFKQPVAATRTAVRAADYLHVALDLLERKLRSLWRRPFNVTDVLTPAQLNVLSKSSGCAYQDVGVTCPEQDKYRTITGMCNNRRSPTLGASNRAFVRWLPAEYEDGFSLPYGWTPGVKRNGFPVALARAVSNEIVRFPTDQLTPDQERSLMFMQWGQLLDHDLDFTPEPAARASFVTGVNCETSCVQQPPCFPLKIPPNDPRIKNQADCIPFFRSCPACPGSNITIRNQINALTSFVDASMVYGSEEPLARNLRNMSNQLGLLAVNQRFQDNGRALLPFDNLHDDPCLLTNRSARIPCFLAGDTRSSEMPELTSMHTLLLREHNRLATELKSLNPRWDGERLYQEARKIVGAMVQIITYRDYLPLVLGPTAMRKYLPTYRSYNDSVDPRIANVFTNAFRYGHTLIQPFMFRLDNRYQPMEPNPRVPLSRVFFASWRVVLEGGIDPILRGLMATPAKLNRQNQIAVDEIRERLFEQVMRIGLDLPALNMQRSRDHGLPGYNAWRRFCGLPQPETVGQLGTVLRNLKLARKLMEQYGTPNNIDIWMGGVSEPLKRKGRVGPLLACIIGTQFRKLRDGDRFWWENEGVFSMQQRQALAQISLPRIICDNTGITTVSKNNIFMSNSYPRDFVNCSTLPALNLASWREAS
In words: Myeloperoxidase inhibition (MPO) assay, taurine chloramine production by the MPO/H2O2/Cl- system. It is filed as biochemical. Conditions: for 1/IC50: inhibition capability expressed as 1/IC50. From the text:
The assay was based on the production of taurine chloramine produced by the MPO/H2O2/Cl^− system in the presence of a selected inhibitor at defined concentration. The procedure for detecting the inhibition of myeloperoxidase has been described in Van Antwerpen et al. (Development and validation of a screening procedure for the assessment of inhibition using a recombinant enzyme, Talanta, 2008, 75(2), 503-510) and is incorporated herewith by reference. Briefly, the reaction mixture contained the following reagents in a final volume of 200 μl: pH 7.4 phosphate buffer (PO4^3−10 mM/NaCl 300 mM), taurine (15 mM), a compound to be tested (up to 20 μM), and the fixed amount of the recombinant MPO (6.6 μl of MPO batch solution diluted 2.5 times, 40 nM). When necessary, the volume was adjusted with water. This mixture was incubated at 37° C. and the reaction initiated with 10.0 μl of H2O2 (100 μM). After 5 minutes, the reaction was stopped by the addition of 10 μl of catalase (8 U/μl). To determine the amount of taurine chloramines produced, 50 μl of 1.35 mM solution of thionitrobenzoic acid were added and the volume adjusted to 300 μl with water. Then, the absorbance of the solutions was measured at 412 nm with a microplate reader and the curve of the absorbance as a function of the inhibitor concentration was plotted. IC50 values against myeloperoxidase enzyme were then determined using standard procedures taking into account the absence of hydrogen peroxide as 100% of inhibition and the absence of inhibitors as 0% of inhibition.

For experiment [2], the target named is T1, MPO. Description: Inhibition of LDL oxidation by MPO, ELISA with Mab AG9. To be noted: for remaining activity at 0.05 µM / remaining activity at 0.1 µM / remaining activity at 1 µM / LDL oxidation (%): 5 min. The experiment is classed as biochemical. As to the method:
Recombinant MPO was prepared as previously described. Each batch solution is characterized by its protein concentration (mg/ml), its activity (U/ml), and its specific activity (U/mg). The chlorination activity was determined according to Hewson and Hager. Human plasma served for the isolation of LDL by ultracentrifugation according to Havel et al. Before oxidation, the LDL fraction (1.019<d<1.067 g/ml) was desalted by two consecutive passages through PD10 gel-filtration columns (Amersham Biosciences, The Netherlands) using PBS buffer. The different steps were carried out in the dark and the protein concentration was measured by the Lowry assay for both MPO and LDL.
The LDL oxidation was carried out at 37° C. in a final volume of 500 μl. The reaction mixture contained the following reagents at the final concentrations indicated between brackets: pH 7.2, PBS buffer, MPO (1 μg/ml), LDL (1000 μg/ml), 2 μl HCl 1N (4 mM), a compound of formula (Ia) of the present invention (50, 100 and 1000 nM), and H2O2 (100 μM). The reaction was stopped after 5 min by cooling the tubes in ice. The assay was performed as described by Moguilevsky et al. (Moguilevsky N., Zouaoui Boudjeltia Z., Babar S., Delrée P., Legssyer I., Carpentier Y., Vanhaeverbeek M., Ducobu J. Monoclonal antibodies against LDL progressively oxidized by myeloperoxidase react with ApoB-100 protein moiety and human atherosclerotic lesions. Biochem. Biophys. Res. Commun. 2004, 323, 1223-1228) in a NUNC maxisorp plate (VWR, Zaventem, Belgium): 200 ng/well of LDL was coated overnight at 4° C. in a sodium bicarbonate pH 9.8 buffer (100 μl). Afterwards, the plate was washed with TBS 80 buffer and then saturated during 1 h at 37° C. with the PBS buffer containing 1% BSA (150 μl/well). After washing the wells twice with the TBS 80 buffer, the monoclonal antibody Mab AG9 (200 ng/well) obtained according to a standard protocol and as previously described was added as a diluted solution in PBS buffer with 0.5% BSA and 0.1% of Polysorbate 20. After incubation for 1 h at 37° C., the plate was washed four times with the TBS 80 buffer and a 3000 times diluted solution of Ig G anti-mouse Alkaline Phosphatase (Promega, Leiden, The Netherlands) in the same buffer was added (100 μl/well). The wells were washed again four times and a revelation solution (150 μl/well) containing 5 mg of para-nitrophenyl phosphate in 5 ml of diethanolamine buffer was added for 30 min at room temperature. The reaction was stopped with 60 μl/well of NaOH 3 N solution. The measurement of the absorbance was performed at 405 nm with a background correction at 655 nm with a Bio-Rad photometer for a 96-well plate (Bio-Rad laboratories, CA, USA). Results were expressed as means of the percentage of LDL oxidation for six independent measurements.
In general terms: In an ELISA, binding on a coated surface is turned into a signal by an enzyme label.

Where [3] appears, read: recombinant MPO 40 nM, pH 7.4 phosphate buffer, 37° C., H2O2 100 μM, 5 minutes.
Setting [4] is: pH 7.2, read-out: LDL oxidation (%).
Setting [5] is: pH 7.2, compound 50 nM, MPO 1 μg/ml, LDL 1000 μg/ml, pH 7.2, 37° C., mean of six measurements, read-out: LDL oxidation (%).
Setting [6] is: pH 7.2, compound 100 nM, MPO 1 μg/ml, LDL 1000 μg/ml, pH 7.2, 37° C., mean of six measurements, read-out: LDL oxidation (%).
Where [7] appears, read: pH 7.2, compound 1000 nM, MPO 1 μg/ml, LDL 1000 μg/ml, pH 7.2, 37° C., mean of six measurements, read-out: LDL oxidation (%).
[8] abbreviates: compound 50 nM, MPO 1 μg/ml, LDL 1000 μg/ml, pH 7.2, 37° C., mean of six measurements.
[9] abbreviates: compound 100 nM, MPO 1 μg/ml, LDL 1000 μg/ml, pH 7.2, 37° C., mean of six measurements.
Setting [10] is: compound 1000 nM, MPO 1 μg/ml, LDL 1000 μg/ml, pH 7.2, 37° C., mean of six measurements.
The mark [11] stands for this setting: value given in nM in the text on FIG. 2.

Structures can show the parent of a compound that is named as a salt. Where two headings read alike, the source gives them in different places. A value given as a limit tells only on which side of the number the result lay.

In general, IC50 refers to the concentration at which inhibition is half-maximal. Regarding `CCN(CC)CCc1c[nH]c2ccc(F)cc12` [Compound F, N,N-Diethyl-3-(2-aminoethyl)-5-fluoro-[1H]-indole], the 1/IC50 on MPO [1] was 7 ± 3 µM⁻¹. Also, the IC50 at MPO [1] (setting [3]) was found to be 160 ± 80 nM. Also, at MPO [2] (setting [4]), the remaining activity at 0.05 µM came to 80.1%, the remaining activity at 0.1 µM is 60.2% and the remaining activity at 1 µM worked out at 8%.

Regarding `CN(C)CCCc1c[nH]c2ccc(F)cc12` [Compound H, N,N-Dimethyl-3-(3-aminopropyl)-5-fluoro-[1H]indole tartrate], the 1/IC50 at MPO [1] amounted to 11 ± 8 µM⁻¹. Also, on MPO [1] (setting [3]), the IC50 was 130 ± 90 nM. Moreover, the remaining activity at 0.05 µM at MPO [2] (setting [5]) was found to be 42.4%. The remaining activity at 0.1 µM at MPO [2] (setting [6]) was 39.7%. For the same molecule, the remaining activity at 1 µM on MPO [2] (setting [7]) came to 8.4%.

For `NCCCc1c[nH]c2ccc(F)cc12` [Compound B, 3-(3-Aminopropyl)-5-fluoro-[1H]-indole], the 1/IC50 on MPO [1] stood at 20 ± 4 µM⁻¹. The IC50 on MPO [1] (setting [3]) was found to be 50 ± 8 nM. Further, the remaining activity at 0.05 µM on MPO [2] (setting [5]) is 26%. In addition, at MPO [2] (setting [6]), the remaining activity at 0.1 µM is 19%. For the same molecule, the remaining activity at 1 µM on MPO [2] (setting [7]) amounted to 9%. For the same molecule, at MPO [2] (at low concentration), the “inhibition of LDL oxidation (in words)” value was “excellent results”.

As to “N-Methyl-3-(3-aminopropyl)-5-fluoro-[1H]-indole tartrate [Compound G]”, the 1/IC50 at MPO [1] turned out to be 6 ± 2 µM⁻¹. At MPO [1] (setting [3]), the IC50 stood at 200 ± 200 nM. Also, the “inhibition of LDL oxidation (in words)” value against MPO [2] (at low concentration) is “excellent results”. For the same molecule, the figures for the “LDL oxidation (%)” value on MPO [2] (setting [8]), on MPO [2] (setting [9]) and at MPO [2] (setting [10]) were 32.9%, 24.8% and 10.2%, respectively.

In turn, `Fc1ccc2[nH]cc(CCN3CCCC3)c2c1` [Compound E, 5-Fluoro-3-[2-(1-pyrrolidinyl)ethyl]-[1H]-indole] came in with a 1/IC50 at MPO [1] of 32 ± 19 µM⁻¹. Further, the IC50 at MPO [1] (setting [3]) turned out to be 40 ± 30 nM. Besides, on MPO [2] (setting [4]), the remaining activity at 0.05 µM was determined as 49.2%, the remaining activity at 0.1 µM worked out at 47.9% and the remaining activity at 1 µM turned out to be 12.1%.

In turn, `NCCc1c[nH]c2ccc(F)cc12` [Compound A, 5-fluorotryptamine, reference compound] gave a 1/IC50 at MPO [1] of 5 ± 0.6 µM⁻¹. The IC50 on MPO [1] (setting [3]) was 200 nM. Also, at MPO [2] (setting [4]), the remaining activity at 0.05 µM is 119%, the remaining activity at 0.1 µM is 111% and the remaining activity at 1 µM turned out to be 41.5%. Also, the “inhibition of LDL oxidation (in words)” value against MPO [2] (irrespective of its concentration in the medium) is “poorly effective”.

The molecule `NCCCCc1c[nH]c2ccc(F)cc12` [Compound C, 3-(4-Aminobutyl)-5-fluoro-[1H]-indole oxalate] showed a 1/IC50 on MPO [1] of 72 ± 19 µM⁻¹. Also, the IC50 is 15 nM at MPO [1] (setting [3]) and 15 ± 4 nM against MPO [1] (setting [11]). On MPO [2] (setting [5]), the remaining activity at 0.05 µM is under 18.5%. The remaining activity at 0.1 µM at MPO [2] (setting [6]) is under 18.5%. In addition, at MPO [2] (setting [7]), the remaining activity at 1 µM is 6.1%. In addition, the “inhibition of LDL oxidation (in words)” value at MPO [2] (at low concentration) is reported as “powerful performance”.

Consider “N-Propyl-3-(3-aminopropyl)-5-fluoro-[1H]-indole [Compound J]”, for which the 1/IC50 on MPO [1] was 6 ± 1 µM⁻¹. Also, the IC50 at MPO [1] (setting [3]) was found to be 170 ± 30 nM. Further, the figures for the “LDL oxidation (%)” value at MPO [2] (setting [8]), at MPO [2] (setting [9]) and at MPO [2] (setting [10]) were 79.9%, 42.5% and 5.6%, respectively.

Turning to `NCCCCCc1c[nH]c2ccc(F)cc12` [Compound K, 3-(5-Aminopentyl)-5-fluoro-[1H]-indole oxalate], the 1/IC50 at MPO [1] worked out at 122 ± 15 µM⁻¹. Also, the IC50 at MPO [1] (setting [3]) came out at 8 nM; at MPO [1] (setting [11]) it was 8 ± 1 nM. In addition, the remaining activity at 0.05 µM on MPO [2] (setting [5]) worked out at 29.5%. Besides, the remaining activity at 0.1 µM at MPO [2] (setting [6]) was determined as 23.4%. In addition, the remaining activity at 1 µM at MPO [2] (setting [7]) came to 3.2%. The “inhibition of LDL oxidation (in words)” value against MPO [2] (at low concentration) is “powerful performance”.

`NCCCCCCc1c[nH]c2ccc(F)cc12` [Compound L, 3-(6-Aminohexyl)-5-fluoro-[1H]-indole oxalate]: at MPO [1], the 1/IC50 worked out at 3.8 ± 0.2 µM⁻¹. The half-maximal inhibitory concentration (IC50) at MPO [1] (setting [3]) is 260 ± 10 nM. For the same molecule, on MPO [2] (setting [5]), the remaining activity at 0.05 µM came out at 91.8%. The remaining activity at 0.1 µM on MPO [2] (setting [6]) came out at 56.1%. In addition, the remaining activity at 1 µM at MPO [2] (setting [7]) was determined as 18.2%.

Molecule `CN(C)CCc1c[nH]c2ccc(F)cc12` [Compound D, N,N-Dimethyl-3-(2-aminoethyl)-5-fluoro-[1H]-indole] registered a 1/IC50 at MPO [1] of 14 ± 7 µM⁻¹. Moreover, the IC50 at MPO [1] (setting [3]) worked out at 90 ± 60 nM. For the same molecule, on MPO [2] (setting [4]), the remaining activity at 0.05 µM came to 91.7%, the remaining activity at 0.1 µM was 64.2% and the remaining activity at 1 µM is 9.9%.
